# Assay results from patent publication US9675592B2, “Methods and compositions for bacteria infections” (priority 2013, dated 2017).
# Like-named read-outs stand apart in the source and are kept apart here.
# Legend:
# [1] = system: test strain 923 pPvra-lux; experiment: Secondary screen / synergy confirmation of Top 40, relative growth with oxacillin; format: cell-based, Staphylococcus aureus; details: Top 40 library, compound at maximum non-GI conc
# Method: In the secondary screen each microtiter plate contained either cells in TSB alone (16 replicates), cells with oxacillin (2 μg/mL, 31 replicates), or cells with test compound and oxacillin (2 μg/mL, 49 wells). Each compound was assayed in four separate biological replicates.
# Synergy Confirmation of “Top 40”. […]
# [2] = system: test strain 923 pPvra-lux (USA300 MRSA); experiment: Primary screen, relative growth in presence of oxacillin; details: compound 10 μM with oxacillin 2 μg/mL, absorbance 24 h, <0.50 = dead cells = hit
# [3] = system: vraSR promoter (Pvra-lux reporter in strain 923); experiment: Primary screen, relative luminescence (vraSR expression)
# [4] = system: vraSR promoter (Pvra-lux reporter in strain 923); format: cell-based, Staphylococcus aureus; details: for RL Ox avg: Top 40 library, with oxacillin, compound at maximum non-GI conc; for vraSR repressing synergist: overall class from syn and rep
# Method: In the secondary screen each microtiter plate contained either cells in TSB alone (16 replicates), cells with oxacillin (2 μg/mL, 31 replicates), or cells with test compound and oxacillin (2 μg/mL, 49 wells). Each compound was assayed in four separate biological replicates. […]
# [5] = system: test strain (923 pPvra-lux); experiment: Growth inhibition by compound alone (maximum non-growth-inhibitory concentration); format: cell-based, Staphylococcus aureus; details: for maximum non-GI conc: compound alone, maximum concentration where it did NOT inhibit growth
# [6] = primary screen, compound 10 μM with oxacillin 2 μg/mL, <0.50 = vraSR repressed = hit
smiles,measurement,setting,value
O=C(Nc1cccc(C(F)(F)F)c1)N1CCN(c2ccc(Nc3cccnc3)nn2)CC1 [F5237-0056],RG Ox avg,[1],1.10
same,RG avg (relative growth),[2],0.02
same,RL avg (relative luminescence),[3]; [6],−0.05
same,RL Ox avg,[4],0.72
same,vraSR repressing synergist,[4],3. no effect
same,maximum non-GI conc,[5],40 µg/mL
CSc1cccc2sc(NC(=O)c3ccccc3NS(=O)(=O)c3ccc(C)cc3)nc12 [F2730-0247],RG Ox avg,[1],0.23
same,RG avg (relative growth),[2],0.31
same,RL avg (relative luminescence),[3]; [6],0.16
same,RL Ox avg,[4],0.15
same,vraSR repressing synergist,[4],1. confirmed
same,maximum non-GI conc,[5],400 µg/mL
Cc1ccc(S(=O)(=O)Nc2ccccc2C(=O)Nc2nc3c(C)ccc(Cl)c3s2)cc1 [F1813-0711],RG Ox avg,[1],0.85
same,RG avg (relative growth),[2],−0.02
same,RL avg (relative luminescence),[3],−0.02
same,RL Ox avg,[4],0.43
same,vraSR repressing synergist,[4],2. possible
same,maximum non-GI conc,[5],400 µg/mL
COc1ccc(Cl)c2sc(NC(=O)c3ccccc3NS(=O)(=O)c3ccc(F)cc3)nc12 [F2708-0138],RG Ox avg,[1],1.04
same,RG avg (relative growth),[2],0.02
same,RL avg (relative luminescence),[3]; [6],−0.07
same,RL Ox avg,[4],0.69
same,vraSR repressing synergist,[4],3. no effect
same,maximum non-GI conc,[5],40 µg/mL
same,concentration,"[5]; compound tested alone, concentration where it did NOT inhibit growth (subinhibitory), Top 40 leads after secondary screen",4 µg/mL
O=C(Nc1ccc2c(c1)OCO2)Nc1nc(-c2ccccn2)cs1 [F5772-8284],RG Ox avg,[1],0.37
same,RG avg (relative growth),[2],0.37
same,RL avg (relative luminescence),[3]; [6],−0.01
same,RL Ox avg,[4],0.52
same,vraSR repressing synergist,[4],2. possible
same,maximum non-GI conc,[5],400 µg/mL
CN1CCN(c2nc(Nc3ccc(SC(F)F)cc3)c3cnn(-c4ccccc4)c3n2)CC1 [F2090-0579],RG Ox avg,[1],0.30
same,RG avg (relative growth),[2],0.00
same,RL avg (relative luminescence),[3]; [6],0.04
same,RL Ox avg,[4],0.11
same,vraSR repressing synergist,[4],1. confirmed
same,maximum non-GI conc,[5],400 µg/mL
Fc1ccc(-c2csc3ncnc(Sc4nnnn4-c4ccccc4)c23)cc1 [F1142-4245],RG Ox avg,[1],0.25
same,RG avg (relative growth),[2],0.03
same,RL avg (relative luminescence),[3]; [6],0.36
same,RL Ox avg,[4],0.04
same,vraSR repressing synergist,[4],1. confirmed
same,maximum non-GI conc,[5],400 µg/mL
CC1CC1c1ccc(CCC(=O)Nc2ccc(Cl)c(Cl)c2)o1 (centres unmarked) [F1118-0378],RG Ox avg,[1],1.00
same,RG avg (relative growth),[2],0.01
same,RL avg (relative luminescence),[3]; [6],0.42
same,RL Ox avg,[4],0.65
same,vraSR repressing synergist,[4],3. no effect
same,maximum non-GI conc,[5],40 µg/mL
OC(c1ccccc1)c1nc2ccccc2n1Cc1ccc(Cl)c(Cl)c1 (centres unmarked) [F3068-0037],RG Ox avg,[1],−0.01
same,RG avg (relative growth),[2],−0.02
same,RL avg (relative luminescence),[3]; [6],0.05
same,RL Ox avg,[4],0.11
same,vraSR repressing synergist,[4],1. confirmed
same,maximum non-GI conc,[5],400 µg/mL
CC(=O)Nc1ccc(Nc2cc(C(C)(C)C)nc3c(-c4ccccc4)c(C)nn23)cc1 [F3348-0030],RG Ox avg,[1],0.01
same,RG avg (relative growth),[2],0.05
same,RL avg (relative luminescence),[3]; [6],0.12
same,RL Ox avg,[4],0.05
same,vraSR repressing synergist,[4],1. confirmed
same,maximum non-GI conc,[5],400 µg/mL
O=C(CCCSc1ccc(Cl)cc1)Nc1nc(-c2ccccn2)cs1 [F2813-0883],RG Ox avg,[1],1.03
same,RG avg (relative growth),[2],−0.03
same,RL avg (relative luminescence),[3]; [6],−0.01
same,RL Ox avg,[4],1.28
same,vraSR repressing synergist,[4],3. no effect
same,maximum non-GI conc,[5],40 µg/mL
O=C(Nc1nnc(-c2ccc(OC(F)(F)F)cc2)o1)C1(c2cccs2)CCCC1 [F2517-0863],RG Ox avg,[1],0.92
same,RG avg (relative growth),[2],0.02
same,RL avg (relative luminescence),[3]; [6],−0.06
same,RL Ox avg,[4],1.18
same,vraSR repressing synergist,[4],3. no effect
same,maximum non-GI conc,[5],4 µg/mL
Clc1ccc(-c2csc3ncnc(Sc4nnnn4-c4ccccc4)c23)cc1 [F1142-4597],RG Ox avg,[1],0.08
same,RG avg (relative growth),[2],0.03
same,RL avg (relative luminescence),[3]; [6],0.37
same,RL Ox avg,[4],−0.01
same,vraSR repressing synergist,[4],1. confirmed
same,maximum non-GI conc,[5],40 µg/mL
Cc1cc(SCC(=O)Nc2cccc(C(F)(F)F)c2)n2ncc(-c3ccccc3)c2n1 [F3305-0354],RG Ox avg,[1],1.01
same,RG avg (relative growth),[2],0.00
same,RL avg (relative luminescence),[3]; [6],0.03
same,RL Ox avg,[4],0.61
same,vraSR repressing synergist,[4],3. no effect
same,maximum non-GI conc,[5],40 µg/mL
O=S(=O)(Nc1cccc(-c2nc3ccccc3s2)c1)c1ccc(F)c(Cl)c1 [F3394-0078],RG Ox avg,[1],1.24
same,RG avg (relative growth),[2],0.26
same,RL avg (relative luminescence),[3]; [6],0.26
same,RL Ox avg,[4],0.41
same,vraSR repressing synergist,[4],3. no effect
same,maximum non-GI conc,[5],40 µg/mL
Cc1nnsc1C(=O)Nc1nc(-c2cc3ccccc3o2)cs1 [F2962-0176],RG Ox avg,[1],0.04
same,RG avg (relative growth),[2],0.06
same,RL avg (relative luminescence),[3]; [6],−0.08
same,RL Ox avg,[4],0.01
same,vraSR repressing synergist,[4],1. confirmed
same,maximum non-GI conc,[5],400 µg/mL
O=C(Nc1ccc(OC(F)(F)F)cc1)N1CCN(c2cc(N3CCCC3)ncn2)CC1 [F5669-0378],RG Ox avg,[1],1.00
same,RG avg (relative growth),[2],−0.02
same,RL avg (relative luminescence),[3]; [6],−0.06
same,RL Ox avg,[4],0.71
same,vraSR repressing synergist,[4],3. no effect
same,maximum non-GI conc,[5],40 µg/mL
Cc1ccc(Nc2nc(N3CCN(Cc4ccccc4)CC3)nc3nccnc23)cc1C [F2359-0308],RG Ox avg,[1],0.01
same,RG avg (relative growth),[2],0.22
same,RL avg (relative luminescence),[3]; [6],0.07
same,RL Ox avg,[4],0.01
same,vraSR repressing synergist,[4],1. confirmed
same,maximum non-GI conc,[5],400 µg/mL
O=C(Nc1nnc(C2=COCCO2)o1)c1cccc(Br)c1 [F0608-0146],RG Ox avg,[1],0.96
same,RG avg (relative growth),[2],−0.05
same,RL avg (relative luminescence),[3]; [6],−0.12
same,RL Ox avg,[4],1.11
same,vraSR repressing synergist,[4],3. no effect
same,maximum non-GI conc,[5],40 µg/mL
CN(C)CCCNc1cc(C(C)(C)C)nc2c(-c3ccc(Cl)cc3)cnn12 [F3348-0373],RG Ox avg,[1],0.99
same,RG avg (relative growth),[2],0.05
same,RL avg (relative luminescence),[3]; [6],0.41
same,RL Ox avg,[4],0.80
same,vraSR repressing synergist,[4],3. no effect
same,maximum non-GI conc,[5],40 µg/mL
CC1CCN(C(C)CNC(=O)Nc2ccc(C(F)(F)F)cc2)CC1 (centres unmarked) [F2438-0002],RG Ox avg,[1],0.95
same,RG avg (relative growth),[2],−0.02
same,RL avg (relative luminescence),[3]; [6],−0.18
same,RL Ox avg,[4],0.62
same,vraSR repressing synergist,[4],3. no effect
same,maximum non-GI conc,[5],40 µg/mL
O=C(Nc1ccccc1-c1nc2ccccc2[nH]1)c1ccccc1Br [F0015-0758],RG Ox avg,[1],0.92
same,RG avg (relative growth),[2],−0.06
same,RL avg (relative luminescence),[3]; [6],0.33
same,RL Ox avg,[4],0.25
same,vraSR repressing synergist,[4],3. no effect
same,maximum non-GI conc,[5],400 µg/mL
Cc1ccc(-c2nnc(NC(=O)c3ccc(C(=O)c4ccccc4)cc3)o2)c(C)c1 [F2518-168],RG avg (relative growth),[2],−0.03
same,RL avg (relative luminescence),[3]; [6],−0.07
O=C(Nc1nnc(-c2ccc(Br)cc2)o1)c1cc(Cl)ccc1Cl [F2518-481],RG avg (relative growth),[2],0.00
same,RL avg (relative luminescence),[3]; [6],−0.05
CCOc1ccc(C(=O)Nc2nnc(-c3ccc(Cl)s3)o2)cc1 [F1374-1129],RG avg (relative growth),[2],0.00
same,RL avg (relative luminescence),[3],0.47
O=C(Nc1nnc(-c2cc3ccccc3o2)o1)c1nc2ccccc2s1 [F2273-415],RG avg (relative growth),[2],0.27
same,RL avg (relative luminescence),[3]; [6],0.22
O=C(Nc1nnc(-c2ccco2)o1)c1ccc(Oc2ccccc2)cc1 [F0608-491],RG avg (relative growth),[2],−0.06
same,RL avg (relative luminescence),[3]; [6],−0.11
O=C(Nc1nnc(-c2ccc(Cl)s2)o1)c1cc(-c2ccccc2)nc2ccccc12 [F1374-1094],RG avg (relative growth),[2],0.03
same,RL avg (relative luminescence),[3]; [6],0.52
O=C(Nc1nnc(-c2ccc(C(F)(F)F)cc2)o1)c1cc2ccccc2o1 [F1374-2134],RG avg (relative growth),[2],0.20
same,RL avg (relative luminescence),[3]; [6],0.38
Cc1ccc(C)c(-c2nnc(NC(=O)c3ccc(S(=O)(=O)N4CCCc5ccccc54)cc3)o2)c1 [F2518-342],RG avg (relative growth),[2],0.00
same,RL avg (relative luminescence),[3]; [6],−0.02
COc1cc(-c2nnc(NC(=O)c3cccc(C(F)(F)F)c3)o2)cc(OC)c1OC [F2517-37],RG avg (relative growth),[2],−0.02
same,RL avg (relative luminescence),[3]; [6],−0.06
COc1cccc(-c2nnc(NC(=O)c3ccc(S(=O)(=O)N4CCc5ccccc5C4)cc3)o2)c1 [F0559-171],RG avg (relative growth),[2],−0.06
same,RL avg (relative luminescence),[3]; [6],−0.11
CSc1ccc(-c2nnc(NC(=O)c3ccc4c(c3)CCCC4)o2)cc1 [F2645-379],RG avg (relative growth),[2],0.04
same,RL avg (relative luminescence),[3]; [6],0.37
O=C(COc1ccc(Cl)cc1)Nc1nnc(-c2ccc3c(c2)CCCC3)o1 [F0608-664],RG avg (relative growth),[2],−0.04
same,RL avg (relative luminescence),[3]; [6],−0.01
O=C(Nc1nnc(-c2ccc(Br)cc2)o1)c1cccc(C(F)(F)F)c1 [F2518-477],RG avg (relative growth),[2],0.01
same,RL avg (relative luminescence),[3]; [6],0.03
COc1ccccc1-c1nnc(NC(=O)c2ccc(S(=O)(=O)N(Cc3ccccc3)C(C)C)cc2)o1 [F0559-148],RG avg (relative growth),[2],0.02
same,RL avg (relative luminescence),[3]; [6],−0.04
